Measured values published in patent US20120270900A1, “NOVEL METHOD OF TREATMENT” (Topo Target A/S, priority 2009, published 2012).

Assays:
[1] = test system: panel of cell lines of different origin; experiment: Clonogenic assay, continuous APO866 treatment, panel of cell lines; assay type: cell-based
Protocol: (§1) Clonogenic assay: Cells were incubated with APO866 at different concentrations with or without 100 μM nicotinic acid and seeded out on semi-solid agar matrix with sheep red blood cells and growth medium. Following a 3-week incubation period, the colonies were counted and % survival relative to control (untreated) cells was calculated. IC50 values were calculated on basis of survival at different concentrations of APO866.
Supplement of nicotinic acid to the growth medium can protect against the cytotoxic effects of inhibitors of nicotinamide phosphoribosyltransferase (NAMPRT), including APO866, by synthesizing nicotine adenine dinucleotide (NAD) by an alternative pathway. A cancer cell line, HEPG2, has been shown not to be able to utilize nicotinic acid for NAD synthesis (Cancer Res. 2003 Nov. 1; 63(21):7436-42). We investigated the protective effect of nicotinic acid against APO866 induced cell death in a panel of cell lines of different origin. […] We used continuous treatment with APO866 in a clonogenic assay. Two cell lines, A2780 and NYH were not protected against APO866 when incubated in a medium containing 100 μM nicotinic acid (Table 1). ML-2, HCT-116 and A431 cells display an increase of IC50 values of more than 40-90 fold in nicotinic acid containing medium compared to standard medium. […]

[2] = target: T1, NAPRT (Homo sapiens, UniProt Q6XQN6); conditions: cited from earlier work
T1 sequence (Q6XQN6 1-538): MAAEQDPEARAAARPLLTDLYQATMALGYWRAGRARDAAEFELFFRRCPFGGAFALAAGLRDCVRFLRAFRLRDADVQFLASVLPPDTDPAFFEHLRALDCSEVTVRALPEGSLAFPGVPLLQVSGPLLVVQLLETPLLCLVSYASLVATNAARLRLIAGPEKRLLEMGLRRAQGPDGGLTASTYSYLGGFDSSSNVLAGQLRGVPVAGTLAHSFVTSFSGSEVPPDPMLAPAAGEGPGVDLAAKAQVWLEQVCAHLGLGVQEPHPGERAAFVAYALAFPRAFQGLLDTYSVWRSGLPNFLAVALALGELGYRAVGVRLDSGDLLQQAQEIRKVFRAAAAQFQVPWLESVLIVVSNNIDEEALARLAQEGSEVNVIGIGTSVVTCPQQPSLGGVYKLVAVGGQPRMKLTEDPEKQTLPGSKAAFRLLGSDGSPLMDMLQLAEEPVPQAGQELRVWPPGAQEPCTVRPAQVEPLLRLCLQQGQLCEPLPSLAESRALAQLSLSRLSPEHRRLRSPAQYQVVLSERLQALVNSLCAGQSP

[3] = test system: PC-3 cells; experiment: LD50 of APO866 in PC-3 cells with and without nicotinic acid; assay type: cell-based
[4] = test system: A2780 xenografts; experiment: Subcutaneous A2780 xenograft study
Protocol: (§2) FIG. 4 illustrates the cumulative survival of mice with subcutaneous A2780 xenografts: Time used for each individual mouse's tumour to reach a size of 800 mm3. The mice were treated i.p. with doses of 15 or 50 mg/kg APO866×2/day in two weekly 4-day cycles combined with vehicle p.o. or 50 mg/kg nicotinic acid (NA). Legend on the figure: The p-values of log-rank analysis comparing the individual groups are shown on the figure.
(§3) Mouse studies: In toxicity and xenograft studies NMRI mice and nude mice, respectively, were treated once daily p.o. with 0.5% HPMC in water or nicotinic acid in the same vehicle combined with two daily injections of APO866 in PBS/saline with 3% HPβCD. The mice were treated in two weekly four-day cycles.
(§4) In xenograft studies, 10^7 cancer cells were injected s.c. in a mixture of PBS/matrigel in nude athymic mice.
(§5) We investigated the in vivo rescue effects of nicotinic acid on nude mice carrying xenograft tumours of A2780 and ML-2 cells. APO866 was given twice daily in weekly four-day cycles for two weeks starting when tumours had reached a size of 100 mm^3.

[5] = Survival of mice under high dose APO866 with or without oral nicotinic acid; assay type: in vivo
Protocol: FIG. 2 illustrates the cumulative survival of mice in response to high dose APO866 treatment. Treatment is 60 mg APO866 twice/day for 4 days. NA=nicotinic acid.

[6] = test system: primary lymphocytes; conditions: cited from earlier work
[7] = test system: A2780; experiment: Clonogenic assay, APO866 with or without 100 μM nicotinic acid; assay type: cell-based
Protocol: as §1
(§6) Supplement of nicotinic acid to the growth medium can protect against the cytotoxic effects of inhibitors of nicotinamide phosphoribosyltransferase (NAMPRT), including APO866, by synthesizing nicotine adenine dinucleotide (NAD) by an alternative pathway. A cancer cell line, HEPG2, has been shown not to be able to utilize nicotinic acid for NAD synthesis (Cancer Res. 2003 Nov. 1; 63(21):7436-42). We investigated the protective effect of nicotinic acid against APO866 induced cell death in a panel of cell lines of different origin. […] We used continuous treatment with APO866 in a clonogenic assay. Two cell lines, A2780 and NYH were not protected against APO866 when incubated in a medium containing 100 μM nicotinic acid (Table 1). ML-2, HCT-116 and A431 cells display an increase of IC50 values of more than 40-90 fold in nicotinic acid containing medium compared to standard medium. Addition of 100 μM nicotinic acid to the medium had in itself no effect on the survival of the cells (data not shown)

[8] = test system: ML-2; experiment: as above; assay type: cell-based
Protocol: as §1, §6

[9] = test system: HCT-116; experiment: as above; assay type: cell-based
Protocol: as §1, §6

[10] = test system: NYH; experiment: as above; assay type: cell-based
Protocol: as §1, §6

[11] = test system: A431; experiment: as above; assay type: cell-based
Protocol: as §1, §6

[12] = test system: primary intestinal cells; conditions: cited from earlier work
[13] = test system: ML-2 xenografts; experiment: Subcutaneous ML-2 xenograft study
Protocol: as §2, with “FIG. 5” for “FIG. 4”, “subcutaneous ML-2” for “subcutaneous A2780”
as §3, §4, §5

[14] = test system: leukemic cells; conditions: WO 1999/053920; cited from earlier work
[15] = Maximally tolerated dose of APO866 in mice; conditions: mouse, in vivo, intraperitoneal; twice a day; Balb/c nude mice; data not shown
[16] = test system: myeloma; conditions: unless nicotinic acid is given 24 hours after the NAMPRTi; Beauparlant et al.; cited from earlier work
[17] = test system: ovarian cancer cell line A2780; experiment: CellTiterGlo luminescent cell viability assay; assay type: cell-based; conditions: 3 days treatment, 1 mM nicotinic acid
Protocol: FIG. 7 illustrates cell viability in the ovarian cancer cell line A2780 measured by CellTiterGlo® after 3 days of CHS-828 treatment with and without 1 mM nicotinic acid added to the medium.
(§7) CellTiterGlo® luminescent cell viability assay: Cells were plated in opaque 96-well plates (5,000 cells/well) 24 hours before use and then incubated with drug for 72 hours at the indicated concentrations with or without nicotinic acid (Invitrogen) added to the media. The CellTiterGlo® assay (Promega) was performed according to the manufacturer's instructions and bioluminescence was measured. Analysis and determination of IC50 values were performed by Prizm.

[18] = test system: colon cancer cell line HCT116; experiment: CellTiterGlo luminescent cell viability assay; assay type: cell-based; conditions: 3 days treatment, varying concentrations of nicotinic acid
Protocol: FIG. 8 illustrates cell viability in the colon cancer cell line HCT116 measured by CellTiterGlo® after 3 days of compound 1050 treatment with and without varying concentrations of nicotinic acid added to the medium.
as §7

[19] = test system: small cell lung cancer cell line NYH; experiment: CellTiterGlo luminescent cell viability assay; assay type: cell-based; conditions: 3 days treatment, 1 mM nicotinic acid
Protocol: FIG. 9 illustrates cell viability in the small cell lung cancer cell line NYH measured by CellTiterGlo® after 3 days of compound 1050 treatment with and without 1 mM nicotinic acid added to the medium.
as §7

[20] = APO866 40 mg/kg i.p. x2/day for 4 days, nicotinic acid 20 mg/kg x1/day p.o. for five days; last treatment day
[21] = 60 mg/kg APO866 twice daily on four consecutive days, vehicle p.o. (no nicotinic acid)
[22] = increase of IC50 to APO866 with 100 μM nicotinic acid in medium

## O=C(/C=C/c1cccnc1)NCCCCC1CCN(C(=O)c2ccccc2)CC1 [APO866]
[1]; range over the cell lines of the panel, continuous treatment
  IC50: 1 to 13 nM
[2]
  inhibition of the enzyme NAPRT: not inhibited
[3]; with nicotinic acid (100 μM) present
  LD50: 5.5 ± 1.4 nM
[3]; without nicotinic acid
  LD50: 4.8 ± 3.0 nM
[4]; 15 mg/kg APO866 i.p. twice daily, weekly four-day cycles for two weeks
  increase of lifespan (% ILS, until tumour size of 800 mm3) compared to the control group: 50%
[4]; 15 mg/kg APO866 with 50 mg/kg nicotinic acid
  anti-proliferative effect with nicotinic acid co-treatment: negates the anti-proliferative effect
[4]; 50 mg/kg APO866 i.p. and 50 mg/kg nicotinic acid p.o.
  increase in % ILS: 180%
[4]; during the study, data not shown
  body weight between the groups: did not vary significantly
[5]; 60 mg/kg APO866 twice daily on four consecutive days combined with 50 mg/kg/day nicotinic acid p.o., until day 26
  survival of mice: all the mice of the group treated with nicotinic acid survived
[5]; [21]
  death of mice: the majority of the control mice died on day 3 and 4
  mice that survive the initial toxicity and recover: 1 of 7
[6]
  effect of vitamin PP compounds on cytotoxic effect: neutralise the cytotoxic effect
[7]; 100 μM nicotinic acid
  protection against APO866 in medium containing nicotinic acid: not protected
[7]; [22]
  NA rescue effect: − (No rescue effect defined as <2-fold increase in IC50)
[8]; 100 μM nicotinic acid
  increase of IC50 values in nicotinic acid containing medium compared to standard medium: 40-90 fold
[8]; [22]
  NA rescue effect: + (Rescue effect defined as >39-fold increase of IC50 to APO866 treatment)
[9]; 100 μM nicotinic acid
  increase of IC50 values in nicotinic acid containing medium compared to standard medium: 40-90 fold
[9]; [22]
  NA rescue effect: + (Rescue effect defined as >39-fold increase of IC50 to APO866 treatment)
[10]; 100 μM nicotinic acid
  protection against APO866 in medium containing nicotinic acid: not protected
[10]; [22]
  NA rescue effect: − (No rescue effect defined as <2-fold increase in IC50)
[11]; 100 μM nicotinic acid
  increase of IC50 values in nicotinic acid containing medium compared to standard medium: 40-90 fold
[11]; [22]
  NA rescue effect: + (Rescue effect defined as >39-fold increase of IC50 to APO866 treatment)
[12]
  effect of vitamin PP compounds on cytotoxic effect: neutralise the cytotoxic effect
[13]; 15 mg/kg APO866 and nicotinic acid, p=0.14
  survival compared with controls: not significantly different from controls
[13]; 50 mg/kg APO866 and nicotinic acid, p=0.002
  tumour growth compared with untreated controls: reduced tumour growth
[13]; 50 mg/kg APO866 combined with nicotinic acid, p=0.97
  effect on tumour size compared with 15 mg/kg APO866 and nicotinic acid: does not improve the effect on tumour size in a significant way
[13]; APO866 only
  effect on tumours: complete elimination of the tumours before day 10
[13]; data not shown
  body weight change between the groups: No overall differences in body weight change
[13]; same APO866 dose with nicotinic acid
  anti-proliferative effect with nicotinic acid co-administered: partially negated
[14]
  effect of vitamin PP compounds on cytotoxicity: neutralise the cytotoxicity
[15]
  MTD: 15 mg/kg

## COCCOCCOCCOCCOC(=O)OC[n+]1ccc(N/C(=N/C#N)NCCCCCCOc2ccc(Cl)cc2)cc1.[Cl-] [GMX1777]
[16]
  effect of nicotinic acid on antitumour effect: abrogates the antitumour effect

## N#CN=C(NCCCCCCOc1ccc(Cl)cc1)Nc1ccncc1 [CHS828]
[17]
  rescue by nicotinic acid from cytotoxicity: minimally rescued

## N#C/N=C(\NCCCCCCC(=O)N(Cc1ccccc1)OC1CCCCC1)Nc1ccncc1 [Compound 1050]
[18]
  rescue by nicotinic acid from treatment: can rescue
[19]
  rescue by nicotinic acid from treatment: not similarly protected

## O=C(O)c1cccnc1 [nicotinic acid]
[20]
  platelet count upon APO866 treatment, nicotinic acid group compared to control: significantly improved
[1]; 100 μM nicotinic acid added to the medium, data not shown
  effect of nicotinic acid in itself on the survival of the cells: no effect
[5]; nicotinic acid administered on the same days as APO866
  protection against APO866-induced death: protects against death even at four times the normal MTD
